Where a name gives a salt, the structure may show the parent alone. Read-outs that look alike come from different tables or passages of the source.

The target of the assay is T1, human hNET (Homo sapiens, UniProt P23975).
T1 construct: expressed in transfected cells; host or cells: MDCK-Net6 (MDCK cells stably transfected with hNET)
Put plainly: Norepinephrine (NE) uptake assay in MDCK-Net6 cells. Type of assay: cell-based. Here is the method: MDCK-Net6 cells, stably transfected with human hNET (Pacholczyk, T., R. D. Blakely, and S. G. Amara, Nature, 1991, 350(6316): p. 350-4) were cultured in growth medium containing high glucose DMEM (Gibco, Cat. No. 11995), 10% FBS (dialyzed, heat-inactivated, US Bio-Technologies, Lot FBD1129HI) and 500 μg/ml G418 (Gibco, Cat. No. 10131). Cells were plated at 300,000/T75 flask and cells were split twice weekly. The JAR cell line (human placental choriocarcinoma) was purchased from ATCC (Cat. No. HTB-144). The cells were cultured in growth medium containing RPMI 1640 (Gibco, Cat. No. 72400), 10% FBS (Irvine, Cat. No. 3000), 1% sodium pyruvate (Gibco, Cat. No. 1136) and 0.25% glucose. Cells were plated at 250,000 cells/T75 flask and split twice weekly. For all assays, cells were plated in Wallac 96-well sterile plates (PerkinElmer, Cat. No. 3983498).
On day 1, cells were plated at 3,000 cells/well in growth medium and maintained in a cell incubator (37° C., 5% CO2). On day 2, growth medium was replaced with 200 μl of assay buffer (25 mM HEPES; 120 mM NaCl; 5 mM KCl; 2.5 mM CaCl2; 1.2 mM MgSO4; 2 mg/ml glucose (pH 7.4, 37° C.)) containing 0.2 mg/ml ascorbic acid and 10 μM pargyline. Plates containing cells with 200 μl of assay buffer were equilibrated for 10 minutes at 37° C. prior to addition of compounds. A stock solution of desipramine was prepared in DMSO (10 mM) and delivered to triplicate wells containing cells for a final tert concentration of 1 μM. Data from these wells were used to define non-specific NE uptake (minimum NE uptake). Test compounds were prepared in DMSO (10 mM) and diluted in assay buffer according to tert range (1 to 10,000 nM). Twenty-five microliters of assay buffer (maximum NE uptake) or tert compound were added directly to triplicate wells containing cells in 200 μl of assay buffer. The cells in assay buffer with tert compounds were incubated for 20 minutes at 37° C. To initiate the NE uptake, [^3H]NE diluted in assay buffer (120 nM final assay concentration) was delivered in 25 μl aliquots to each well and the plates were incubated for 5 minutes (37° C.). The reaction was terminated by decanting the supernatant from the plate. The plates containing cells were washed twice with 200 μl assay buffer (37° C.) to remove free radioligand. The plates were then inverted, left to dry for 2 minutes, then reinverted and air-dried for an additional 10 minutes. The cells were lysed in 25 μl of 0.25 N NaOH solution (4° C.), placed on a shake table and vigorously shaken for 5 minutes. After cell lysis, 75 μl of scintillation cocktail was added to each well and the plates were sealed with film tape. The plates were returned to the shake table and vigorously shaken for a minimum of 10 minutes to ensure adequate partitioning of organic and aqueous solutions. The plates were counted in a Wallac Microbeta counter (PerkinElmer) to collect the raw cpm data.
For each experiment, a data stream of cpm values collected from the Wallac Microbeta counter was downloaded to a Microsoft Excel statistical application program. Calculations of EC50 values were made using the transformed-both-sides logistic dose response program written by Wyeth Biometrics Department. The statistical program uses mean cpm values from wells representing maximum binding or uptake (assay buffer) and mean cpm values from wells representing minimum binding or uptake ((1 μM desipramine (hNET) or 1 μM paroxetine (hSERT)). Estimation of the EC50 value was completed on a log scale and the line was fit between the maximum and minimum binding or uptake values. All graphic data representation was generated by normalizing each data point to a mean percent based on the maximum and minimum binding or uptake values. The EC50 values reported from multiple experiments were calculated by pooling the raw data from each experiment and analyzing the pooled data as one experiment.

Where [1] appears, read: 1 μM test compound, [3H]NE uptake, MDCK-Net6 cells, read-out: % Inhibition @ 1 μM (hNET).
[2] abbreviates: MDCK-Net6, read-out: % Inhibition @ 1 μM (hNET).

T1 sequence (P23975 whole entry): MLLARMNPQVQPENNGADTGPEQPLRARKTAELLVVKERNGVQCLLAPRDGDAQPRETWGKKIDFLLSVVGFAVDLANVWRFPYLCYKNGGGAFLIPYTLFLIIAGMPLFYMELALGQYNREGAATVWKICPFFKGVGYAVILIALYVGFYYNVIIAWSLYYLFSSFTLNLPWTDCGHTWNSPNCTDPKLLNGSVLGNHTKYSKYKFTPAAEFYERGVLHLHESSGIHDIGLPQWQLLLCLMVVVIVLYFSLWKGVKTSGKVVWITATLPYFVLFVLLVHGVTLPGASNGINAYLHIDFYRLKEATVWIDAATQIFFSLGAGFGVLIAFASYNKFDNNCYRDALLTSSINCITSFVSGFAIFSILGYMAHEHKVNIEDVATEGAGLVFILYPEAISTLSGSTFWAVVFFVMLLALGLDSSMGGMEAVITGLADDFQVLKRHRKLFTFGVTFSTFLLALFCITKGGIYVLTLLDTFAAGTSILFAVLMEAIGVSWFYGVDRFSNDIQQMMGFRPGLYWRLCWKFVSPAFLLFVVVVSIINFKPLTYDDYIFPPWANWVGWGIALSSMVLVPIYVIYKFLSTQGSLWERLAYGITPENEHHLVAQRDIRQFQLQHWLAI

The EC50 is the concentration at which the effect is half-maximal. A low value points to a more potent agent. For `OC1(C(CN2CCNCC2)c2cccc(Cl)c2)CCCCC1` (stereo not shown) [Example 1, 1-[1-(3-chlorophenyl)-2-piperazin-1-ylethyl]cyclohexanol Dihydrochloride], it took 18 nM to reach a half-maximal effect ([3H]NE uptake, MDCK-Net6 cells) (EC50).

The inhibition is the share of the control response that was lost under treatment. For the compound `OC1(C(CN2CCNCC2)c2ccc3ccccc3c2)CCC1` (stereo not shown) [Example 5, 1-[1-(2-naphthyl)-2-piperazin-1-ylethyl]cyclobutanol Dihydrochloride], the inhibition at 1 µM under setting [1] is 97%. This compound also came in with an EC50 ([3H]NE uptake, MDCK-Net6 cells) of 160 nM.

With `OC1(C(CN2CCNCC2)c2cccc3ccccc23)CCCCC1` (stereo not shown) [Example 21, 1-[1-(1-naphthyl)-2-piperazin-1-ylethyl]cyclohexanol Dihydrochloride], the inhibition at 1 µM under setting [1] was determined as 86%. The midpoint of the response ([3H]NE uptake, MDCK-Net6 cells), the EC50, lay at 57 nM.

In the case of `OC1(C(CN2CCNCC2)c2cccc3ccccc23)CCCC1` (stereo not shown) [Example 45, 1-[1-(1-naphthyl)-2-piperazin-1-ylethyl]cyclopentanol Dihydrochloride], the inhibition at 1 µM under setting [1] came to 44%.

Consider `CCC(O)(CC)C(CN1CCNCC1)c1cccc2ccccc12` (stereo not shown) [Example 53, 3-ethyl-2-(1-naphthyl)-1-piperazin-1-ylpentan-3-ol Dihydrochloride], for which the inhibition at 1 µM under setting [1] was 34%.

With `CN1CCN(CC(c2cccc3ccccc23)C2(O)CCCC2)CC1` (stereo not shown) [Example 56, 1-[2-(4-methylpiperazin-1-yl)-1-(1-naphthyl)ethyl]cyclopentanol Dihydrochloride], the inhibition at 1 µM under setting [1] stood at 36%.

Turning to `CN1CCC(O)(C(CN2CCNCC2)c2ccc3ccccc3c2)CC1` (stereo not shown) [Example 59, 1-methyl-4-[1-(2-naphthyl)-2-piperazin-1-ylethyl]piperidin-4-ol Dihydrochloride], the inhibition at 1 µM under setting [1] came out at 33%.

Turning to `OC1(C(CN2CCNCC2)c2ccc3ccccc3c2)CCCCC1` (stereo not shown) [Example 63, 1-[1-(2-naphthyl)-2-piperazin-1-ylethyl]cyclohexanol Dihydrochloride], under setting [1], the inhibition at 1 µM is 26%.

For `CN1CCN(CC(c2ccc3ccccc3c2)C2(O)CCCCC2)CC1` (stereo not shown) [Example 64, 1-[2-(4-methylpiperazin-1-yl)-1-(2-naphthyl)ethyl]cyclohexanol Dihydrochloride], the inhibition at 1 µM under setting [1] was 28%.

For the compound `OC1(C(CN2CCNCC2)c2cccc3ccccc23)CCC1` (stereo not shown) [Example 68, 1-[1-(1-naphthyl)-2-piperazin-1-ylethyl]cyclobutanol Dihydrochloride], the inhibition at 1 µM under setting [1] worked out at 23%.

As for `CN1CCN(CC(c2cccc3ccccc23)C2(O)CCC2)CC1` (stereo not shown) [Example 69, 1-[2-(4-methylpiperazin-1-yl)-1-(1-naphthyl)ethyl]cyclobutanol Dihydrochloride], the inhibition at 1 µM under setting [1] came to 26%.

Regarding `CC(C)(C)C1CCC(O)(C(CN2CCNCC2)c2cccc3ccccc23)CC1` (stereo not shown) [Example 76, 4-tert-butyl-1-[1-(1-naphthyl)-2-piperazin-1-ylethyl]cyclohexanol Dihydrochloride], under setting [1], the inhibition at 1 µM is 22%.

For the compound `CCC(O)(CC)C(CN1CCN(C)CC1)c1cccc2ccccc12` (stereo not shown) [Example 89, 3-ethyl-1-(4-methylpiperazin-1-yl)-2-(1-naphthyl)pentan-3-ol Dihydrochloride], under setting [1], the inhibition at 1 µM was determined as 15%.

On to `CCC1CCC(O)(C(CN2CCNCC2)c2cccc3ccccc23)CC1` (stereo not shown) [Example 91, 4-ethyl-1-[1-(1-naphthyl)-2-piperazin-1-ylethyl]cyclohexanol Dihydrochloride], for which the inhibition at 1 µM under setting [1] amounted to 14%.

As to `CC1CCC(O)(C(CN2CCNCC2)c2cccc3ccccc23)CC1` (stereo not shown) [Example 97, 4-methyl-1-[1-(1-naphthyl)-2-piperazin-1-ylethyl]cyclohexanol Dihydrochloride], under setting [1], the inhibition at 1 µM was found to be 5%.

Turning to `CN1CCN(CC(c2cccc3ccccc23)C2(O)CCC(C(C)(C)C)CC2)CC1` (stereo not shown) [Example 100, 4-tert-butyl-1-[2-(4-methylpiperazin-1-yl)-1-(1-naphthyl)ethyl]cyclohexanol Dihydrochloride], under setting [1], the inhibition at 1 µM came out at 4%.

As for `CN1CCC(O)(C(CN2CCOCC2)c2ccc3ccccc3c2)CC1` (stereo not shown) [Example 102, 1-methyl-4-[2-morpholin-4-yl-1-(2-naphthyl)ethyl]piperidin-4-ol Hydrochloride], under setting [1], the inhibition at 1 µM was determined as 3%.

For `OC1(C(CN2CCOCC2)c2ccc3ccccc3c2)CCCCC1` (stereo not shown) [Example 106, 1-[2-morpholin-4-yl-1-(2-naphthyl)ethyl]cyclohexanol Hydrochloride], under setting [1], the inhibition at 1 µM was 2%.

For the compound `OC1(C(CN2CCOCC2)c2ccc3ccccc3c2)CCC1` (stereo not shown) [Example 109, 1-[2-morpholin-4-yl-1-(2-naphthyl)ethyl]cyclobutanol Hydrochloride], the inhibition at 1 µM under setting [1] amounted to 0%.

In the case of `OC1(C(CN2CCNCC2)c2cc(Cl)sc2Cl)CCCCC1` (stereo not shown) [Example 141, 1-[1-(2,5-dichlorothien-3-yl)-2-piperazine-1-ylethyl]cyclohexanol Dihydrochloride], the inhibition at 1 µM under setting [2] is 94%. Further, the EC50 ([3H]NE uptake, MDCK-Net6 cells) stood at 240 nM.

As to `OC1(C(CN2CCNCC2)c2ccc(Cl)s2)CCCCC1` (stereo not shown) [Example 142, 1-[1-(5-chlorothien-2-yl)-2-piperazin-1-ylethyl]cyclohexanol Dihydrochloride], the inhibition at 1 µM under setting [1] amounted to 51%.

`OC1(C(CN2CCNCC2)c2ccc(Br)s2)CCCCC1` (stereo not shown) [Example 143, 1-[1-(5-bromothien-2-yl)-2-piperazin-1-ylethyl]cyclohexanol Dihydrochloride]: the inhibition at 1 µM under setting [1] stood at 47%.

`OC1(C(CN2CCNCC2)c2csc(Cl)c2)CCCCC1` (stereo not shown) [Example 144, 1-[1-(5-chlorothien-3-yl)-2-piperazin-1-ylethyl]cyclohexanol Dihydrochloride]: the inhibition at 1 µM under setting [2] amounted to 86%. Further, where the note is “[3H]NE uptake, MDCK-Net6 cells”, the response was half-maximal at 100 nM (EC50).

Take `NC1CCN(CC(c2csc(Cl)c2)C2(O)CCCCC2)CC1` (stereo not shown) [Example 145, 1-[2-(4-aminopiperidin-1-yl)-1-(5-chlorothien-3-yl)ethyl]cyclohexanol Dihydrochloride]: under setting [2], the inhibition at 1 µM is 38%.

As for `OC1(C(CN2CCNCC2)c2csc3ccccc23)CCCCC1` (stereo not shown) [Example 146, 1-[1-(1-benzothien-3-yl)-2-piperazin-1-ylethyl]cyclohexanol Dihydrochloride], the inhibition at 1 µM under setting [2] worked out at 82%. Where the note is “[3H]NE uptake, MDCK-Net6 cells”, a half-maximal effect (EC50) was put at 120 nM.

For `Cn1cc(C(CN2CCNCC2)C2(O)CCCCC2)c2ccccc21` (stereo not shown) [Example 154, 1-[1-(1-methyl-1H-indol-3-yl)-2-piperazin-1-ylethyl]cyclohexanol Dihydrochloride], under setting [1], the inhibition at 1 µM amounted to 32%.

On to `OC1(C(CN2CCNCC2)c2c[nH]c3ccccc23)CCCCC1` (stereo not shown) [Example 155, 1-[1-(1H-indol-3-yl)-2-piperazin-1-ylethyl]cyclohexanol Dihydrochloride], for which, under setting [1], the inhibition at 1 µM stood at 21%.

With `OC1(C(CN2CCNCC2)c2ccsc2Cl)CCCCC1` (stereo not shown) [Example 156, 1-[1-(2-chlorothien-3-yl)-2-piperazin-1-ylethyl]cyclohexanol Dihydrochloride], the inhibition at 1 µM under setting [2] came to 55%. For the setting “[3H]NE uptake, MDCK-Net6 cells”, this compound returned an EC50 of 720 nM.

Consider `CN1CCN(CC(c2csc(Cl)c2)C2(O)CCCCC2)CC1` (stereo not shown) [Example 159, 1-[1-(5-chlorothien-3-yl)-2-(4-methylpiperazin-1-yl)ethyl]cyclohexanol Dihydrochloride], for which the inhibition at 1 µM under setting [2] was 88%. The EC50 ([3H]NE uptake, MDCK-Net6 cells) was determined as 25 nM.

With `CN1CCN(C[C@@H](c2csc(Cl)c2)C2(O)CCCCC2)CC1` [Example 258, 1-[(1R)-1-(5-chlorothien-3-yl)-2-(4-methylpiperazin-1-ylethyl]cyclohexanol Dihydrochloride], the inhibition at 1 µM under setting [2] was found to be 91%.

Values taken from patent US7419980B2, “Fused-aryl and heteroaryl derivatives and methods of their use” (Wyeth, priority 2003, dated 2008).
